“And” between values parts separate entries of the source, which are not always exact repeats. Identical values can stand only once. “Also recorded” adds a separate entry of the source. One block for each compound: values may come before it.
Columns and labels:
[1] = cited from earlier work
[2] = Human pilot pharmacokinetic study of IV and PO FdCyd and THU; settings: humans; after PO dosing; FC detected in 4 out of the 7 patients
[3] = Plasma pharmacokinetics of FdCyd, metabolites and THU in cynomolgus monkeys; settings: for Detection of metabolites in plasma: four animals; for Concentrations, fold lower than those of parent FdCyd: PO FdCyd 1 h after 500 mg/kg PO THU; for Detection in plasma: PO FdCyd at 1 and 10 mg/kg 1 h after PO THU; for AUC(0-inf): AUC0-inf; for AUC(0-t): AUC0-t
[4] = test system: cynomolgus monkeys; settings: THU (500 mg/kg) and FdCyd (0.1, 1.0 or 10.0 mg/kg) PO QDx3 every week, 3 or 4 repeat 1 week cycles
[5] = monkeys, FdCyd 0.1 mg/kg PO 1 h after 500 mg/kg THU PO
[6] = both, cynomolgus monkey, plasma, iv, analyte FdCyd, FdCyd 8 mg/kg 3 h IV infusion with THU 30 mg/kg IV, N=2, mean (±SD)
[7] = both, cynomolgus monkey, plasma, po, 10 mg/kg, analyte FdCyd, FdCyd 10 mg/kg PO 1 h after THU 150 mg/kg PO, N=4, mean (±SD)
[8] = both, cynomolgus monkey, plasma, po, 10 mg/kg, analyte FdCyd, FdCyd 10 mg/kg PO 1 h after THU 500 mg/kg PO, N=4, mean (±SD)

SMILES: Nc1ncn([C@@H]2O[C@H](CO)[C@@H](O)[C@H]2O)c(=O)n1 [5-aza-cytidine]
Chemical stability [1]: unstable

Overall maximum plasma concentration of FC observed [2]: 36.9 ng/mL
FC in plasma ([3]; monkeys, 10 mg/kg FdCyd PO after 150 mg/kg THU PO): no FC was detected
FC in plasma ([3]; monkeys, 10 mg/kg FdCyd PO after 150 mg/kg THU PO, listed as 5-FC): not after 150 mg/kg THU
FC in plasma ([3]; monkeys, 10 mg/kg FdCyd PO with 500 mg/kg THU PO): Low levels of FC were also detected
FC in plasma ([3]; monkeys, 10 mg/kg FdCyd PO with 500 mg/kg THU PO, listed as 5-FC): observed
Detection of metabolites in plasma [3, 5]: No FU or FC was detected
SMILES: Nc1nc(=O)[nH]cc1F [FC, 5-fluorocytosine]

Detection of metabolites in plasma [3, 5]: No FU or FC was detected
Concentrations, fold lower than those of parent FdCyd ([3]; monkeys): approximately 10 fold
Detection in plasma ([3]; monkeys): detectable plasma concentrations
SMILES: O=c1[nH]cc(F)c(=O)[nH]1 [FU, 5-fluorouracil]

FUrd peaks in plasma samples ([3]; any of the samples, detectable down to approximately 30 ng/mL): no FUrd peaks were detected
SMILES: O=c1[nH]c(=O)n([C@@H]2O[C@H](CO)[C@@H](O)[C@H]2O)cc1F [FUrd, 5-fluorouridine]

SMILES: Nc1nc(=O)n([C@H]2C[C@H](O)[C@@H](CO)O2)cc1F [FdCyd, 5-fluoro-2’-deoxycytidine]
AUC(0-inf) [3, 6]: 17800 ng·h/mL
AUC(0-t) [3, 6]: 17800 ng·h/mL
Cmax [3, 6]: 5690 ng/mL
Tmax ([3]; both, cynomolgus monkey, plasma, iv, Tmax, analyte FdCyd, FdCyd 8 mg/kg 3 h IV infusion with THU 30 mg/kg IV, N=2, mean (±SD)): 1.75 h
half-life ([3]; both, cynomolgus monkey, plasma, iv, T½, analyte FdCyd, FdCyd 8 mg/kg 3 h IV infusion with THU 30 mg/kg IV, N=2, mean (±SD)): 0.87 h
Tmax ([3]; both, cynomolgus monkey, plasma, po, 0.1 mg/kg, Tmax for FdCyd (mean), monkeys, FdCyd 0.1 mg/kg PO 1 h after 500 mg/kg THU PO): 0.25 h
Tmax ([3]; both, cynomolgus monkey, plasma, po, 1 mg/kg, Tmax for FdCyd (mean), monkeys, FdCyd 1 mg/kg PO 1 h after 500 mg/kg THU PO): 0.5 h
AUC(0-inf) [3, 7]: 1930 ng·h/mL
AUC(0-inf) [3, 8]: 5400 ng·h/mL
AUC(0-t) [3, 7]: 1870 ng·h/mL
AUC(0-t) [3, 8]: 5280 ng·h/mL
CL/F [3, 7]: 126 mL/min/kg
CL/F [3, 8]: 53 mL/min/kg
Cmax [3, 7]: 1180 ng/mL
Cmax [3, 8]: 2030 ng/mL
bioavailability ([3]; both, cynomolgus monkey, plasma, po, 10 mg/kg, F (PO bioavailability), analyte FdCyd, FdCyd 10 mg/kg PO 1 h after THU 150 mg/kg PO, relative to 4, 8, and 16 mg/kg FdCyd IV with 30 mg/kg THU): 8.9%
bioavailability ([3]; both, cynomolgus monkey, plasma, po, 10 mg/kg, F (PO bioavailability), analyte FdCyd, FdCyd 10 mg/kg PO 1 h after THU 500 mg/kg PO, relative to 4, 8, and 16 mg/kg FdCyd IV with 30 mg/kg THU): 25%
Tmax ([3]; both, cynomolgus monkey, plasma, po, 10 mg/kg, Tmax for FdCyd (mean), monkeys, FdCyd 10 mg/kg PO 1 h after 500 mg/kg THU PO): 1.38 h
Tmax ([3]; both, cynomolgus monkey, plasma, po, 10 mg/kg, Tmax, analyte FdCyd, FdCyd 10 mg/kg PO 1 h after THU 150 mg/kg PO, N=4, mean (±SD)): 1.25 h
Tmax ([3]; both, cynomolgus monkey, plasma, po, 10 mg/kg, Tmax, analyte FdCyd, FdCyd 10 mg/kg PO 1 h after THU 500 mg/kg PO, N=4, mean (±SD)): 1.38 h
half-life ([3]; both, cynomolgus monkey, plasma, po, 10 mg/kg, T½, analyte FdCyd, FdCyd 10 mg/kg PO 1 h after THU 150 mg/kg PO, N=4, mean (±SD)): 1.23 h
half-life ([3]; both, cynomolgus monkey, plasma, po, 10 mg/kg, T½, analyte FdCyd, FdCyd 10 mg/kg PO 1 h after THU 500 mg/kg PO, N=4, mean (±SD)): 0.63 h
half-life ([3]; both, cynomolgus monkey, plasma, po, Plasma terminal half-life of FdCyd, monkeys, range over groups receiving 0.1, 1.0, and 10 mg/kg PO FdCyd 1 h after 500 mg/kg PO THU): 0.4 to 2.7 h
clearance ([3]; both, cynomolgus, cynomolgus monkey, plasma, iv): ~15 mL/min/kg
half-life ([3]; both, cynomolgus, cynomolgus monkey, plasma, iv, FdCyd half-life, monkeys, after IV FdCyd and THU administration, range): 0.367 to 0.933 h
bioavailability ([3]; both, cynomolgus, cynomolgus monkey, plasma, po, FdCyd PO bioavailability after THU, monkeys, range, increased with increasing THU dose): 9 to 25%
Plasma concentrations of FdCyd or downstream metabolites ([3]; monkeys, 10 mg/kg PO FdCyd without THU, 10 mg/kg): not detectable; also recorded: undetectable
Detectable plasma concentrations of FdCyd (range per animal) ([3]; monkeys, FdCyd 0.1 mg/kg PO 1 h after 500 mg/kg THU PO, two of four animals): 22.6 to 117.2 ng/mL and 34.1 to 152.2 ng/mL
Mortality and dose-limiting toxicity [4]: did not result in any mortality or any signs of dose-limiting toxicity

Concentrations, fold lower than those of parent FdCyd ([3]; monkeys): approximately 10 fold
Detection in plasma ([3]; monkeys): detectable plasma concentrations
SMILES: O=c1[nH]c(=O)n([C@H]2C[C@H](O)[C@@H](CO)O2)cc1F [FdUrd, 5-fluoro-2’-deoxyuridine]
Detection of metabolites in plasma [3, 5]: three had detectable plasma concentrations of FdUrd out to 60 min

SMILES: Nc1ncn([C@H]2C[C@H](O)[C@@H](CO)O2)c(=O)n1 [decitabine]
Chemical stability [1]: unstable

Reference: article PMC4573928 (Cancer chemotherapy and pharmacology, 2015)
